The record followed here is US20260242353A1, “HETEROARYL DERIVATIVES AS DDRs INHIBITORS” (CHIESI FARMACEUTICI S.P.A., priority 2022, published 2026).

One test concerns the target T1, DDR1 (Homo sapiens, UniProt Q08345).
T1 construct: purchased Carna Biosciences
Nature of the test: LanthaScreen Europium Kinase Binding assay, DDR1. The gist of the method: (§1)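 Compounds were incubated 1 h at rt with 5 nM DDR1 plus 20 nM Kinase Tracer 178, or 5 nM DDR2 plus 10 nM tracer, and 2 nM Eu anti-GST antibody in HEPES pH 7.5 buffer. Read-out was the TR-FRET 665/615 nm ratio. IC50 came from a 4-parameter fit and was converted to Ki by Cheng-Prusoff.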
In general terms: TR-FRET usually uses a lanthanide donor and a delayed reading to cut background.

The next test concerns the target T2, DDR2 (Homo sapiens, UniProt Q16832).
T2 construct: purchased Life Technologies
T2 sequence (Q16832 22-855): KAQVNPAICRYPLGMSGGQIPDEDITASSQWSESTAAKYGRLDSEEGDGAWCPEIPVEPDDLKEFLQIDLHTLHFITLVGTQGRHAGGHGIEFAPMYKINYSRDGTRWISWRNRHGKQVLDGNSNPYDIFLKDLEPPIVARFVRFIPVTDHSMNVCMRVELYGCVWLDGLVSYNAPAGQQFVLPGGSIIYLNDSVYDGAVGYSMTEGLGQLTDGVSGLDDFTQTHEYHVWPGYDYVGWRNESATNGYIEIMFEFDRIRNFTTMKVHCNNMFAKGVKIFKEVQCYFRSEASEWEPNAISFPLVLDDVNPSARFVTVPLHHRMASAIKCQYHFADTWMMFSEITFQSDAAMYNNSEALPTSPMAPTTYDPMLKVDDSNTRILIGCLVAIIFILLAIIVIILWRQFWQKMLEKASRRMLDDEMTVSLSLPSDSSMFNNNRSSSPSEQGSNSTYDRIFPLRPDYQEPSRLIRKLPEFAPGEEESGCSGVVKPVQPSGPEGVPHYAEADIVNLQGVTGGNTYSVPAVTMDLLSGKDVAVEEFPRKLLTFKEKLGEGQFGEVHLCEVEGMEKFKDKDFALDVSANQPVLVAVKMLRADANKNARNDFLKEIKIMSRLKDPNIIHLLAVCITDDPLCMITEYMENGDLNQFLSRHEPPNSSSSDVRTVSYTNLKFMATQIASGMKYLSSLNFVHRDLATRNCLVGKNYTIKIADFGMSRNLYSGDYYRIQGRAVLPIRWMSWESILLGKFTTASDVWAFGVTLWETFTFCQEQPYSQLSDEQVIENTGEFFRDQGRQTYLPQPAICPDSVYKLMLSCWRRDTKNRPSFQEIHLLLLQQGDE
The experiment in a line: LanthaScreen Europium Kinase Binding assay, DDR2. The gist of the method: as §1

Where [1] appears, read: 5 nM DDR1, 20 nM Kinase Tracer 178, 1 h at rt, Ki from IC50 by Cheng-Prusoff, read-out: Ki DDR1.
Setting [2] is: 5 nM DDR2, 10 nM Kinase Tracer 178, 1 h at rt, Ki from IC50 by Cheng-Prusoff, read-out: Ki DDR2.

pKi: −log10 of the molar value. Where two headings read alike, the source gives them in different places.

T1 sequence (Q08345 19-913): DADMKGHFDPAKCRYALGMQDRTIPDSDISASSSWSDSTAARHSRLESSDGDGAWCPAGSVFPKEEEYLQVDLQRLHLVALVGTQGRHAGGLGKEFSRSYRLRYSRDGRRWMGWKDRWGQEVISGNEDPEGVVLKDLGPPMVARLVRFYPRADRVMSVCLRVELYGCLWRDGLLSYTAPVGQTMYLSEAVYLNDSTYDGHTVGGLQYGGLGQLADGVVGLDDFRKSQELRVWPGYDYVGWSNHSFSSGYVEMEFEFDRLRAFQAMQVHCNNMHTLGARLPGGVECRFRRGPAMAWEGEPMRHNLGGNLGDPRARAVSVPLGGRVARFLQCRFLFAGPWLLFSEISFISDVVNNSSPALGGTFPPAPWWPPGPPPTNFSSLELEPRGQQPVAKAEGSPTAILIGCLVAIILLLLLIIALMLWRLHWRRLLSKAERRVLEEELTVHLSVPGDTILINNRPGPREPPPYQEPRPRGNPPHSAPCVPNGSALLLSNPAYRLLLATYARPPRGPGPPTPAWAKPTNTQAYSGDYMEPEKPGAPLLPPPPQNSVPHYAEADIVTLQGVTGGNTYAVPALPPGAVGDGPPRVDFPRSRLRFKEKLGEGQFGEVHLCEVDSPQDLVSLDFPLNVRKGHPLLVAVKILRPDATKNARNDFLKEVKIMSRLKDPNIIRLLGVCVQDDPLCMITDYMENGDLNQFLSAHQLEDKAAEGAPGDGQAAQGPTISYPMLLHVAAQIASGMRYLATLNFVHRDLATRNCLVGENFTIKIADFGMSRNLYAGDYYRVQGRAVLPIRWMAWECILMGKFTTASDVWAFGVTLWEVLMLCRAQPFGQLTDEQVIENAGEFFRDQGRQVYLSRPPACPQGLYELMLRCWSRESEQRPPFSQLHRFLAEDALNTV

One may read the pKi as −log10 of the Ki, conventionally taken in molar units. Take `Cc1ccc(C(=O)Nc2cncc(C(F)(F)F)c2)cc1N1CC(Oc2cncc(C(N)=O)c2)C1` [Example 132, 5-((1-(2-methyl-5-((5-(trifluoromethyl)pyridin-3-yl)carbamoyl)phenyl)azetidin-3-yl)oxy)nicotinamide]: the negative logarithm of the Ki (pKi) was above 8.30 at DDR1 (setting [1]) and 7.60 to 8.30 at DDR2 (setting [2]).
Take `Cc1ccc(C(=O)Nc2cncc(C(F)(F)F)c2)cc1C1CN(c2cncnc2)CC1O` (single isomer, unassigned) [Example 122, 3-(4-hydroxy-1-(pyrimidin-5-yl)pyrrolidin-3-yl)-4-methyl-N-(5-(trifluoromethyl)pyridin-3-yl)benzamide]: the pKi at DDR1 (setting [1]) is above 8.30; on DDR2 (setting [2]), 7.60 to 8.30.
In the same order, the values of `Cc1ccc(C(=O)Nc2cncc(C(F)(F)F)c2)cc1[C@@H]1CCN(c2cnc3ccc(CN4CCOCC4)cn23)C1` [Example 77, (S)-4-methyl-3-(1-(6-(morpholinomethyl)imidazo [1,2-a]pyridin-3-yl)pyrrolidin-3-yl)-N-(5-(trifluoromethyl)pyridin-3-yl)benzamide] are above 8.30 and 7.60 to 8.30.
`CC(=O)Nc1cncc(N2CC[C@@H](c3cc(C(=O)Nc4cncc(C(F)(F)F)c4)ccc3C)C2)c1` [Example 28, (S)-3-(1-(5-acetamidopyridin-3-yl)pyrrolidin-3-yl)-4-methyl-N-(5-(trifluoromethyl)pyridin-3-yl)benzamide]: the pKi at DDR1 (setting [1]) and at DDR2 (setting [2]) was above 8.30 each time.
For the molecule `Cc1ccc(C(=O)Nc2cncc(C(F)(F)F)c2)cc1C1CCN(c2cnn3cccnc23)C1` (stereo in doubt) [Example 90, 4-methyl-3-[(3R)-1-pyrazolo[1,5-a]pyrimidin-3-ylpyrrolidin-3-yl]-N-[5-(trifluoromethyl)-3-pyridyl]benzamide], the pKi on DDR1 (setting [1]) is above 8.30; at DDR2 (setting [2]) it was 7.60 to 8.30.
`Cc1ccc(C(=O)Nc2cncc(C(F)(F)F)c2)cc1[C@@H]1CCN(c2cncc(OC3CCN(C)CC3)c2)C1` [Example 81, (S)-4-methyl-3-(1-(5-((1-methylpiperidin-4-yl)oxy)pyridin-3-yl)pyrrolidin-3-yl)-N-(5-(trifluoromethyl)pyridin-3-yl)benzamide]: the pKi on DDR1 (setting [1]) is above 8.30; at DDR2 (setting [2]), 7.60 to 8.30.
Take `Cc1ccc(C(=O)Nc2cncc(C(F)(F)F)c2)cc1[C@@H]1CCN(Cc2cnc3ccccn23)C1` [Example C1, (S)-3-(1-(imidazo[1,2-a]pyridin-3-ylmethyl)pyrrolidin-3-yl)-4-methyl-N-(5 (trifluoromethyl)pyridin-3-yl)benzamide]: the negative-log Ki (pKi) at DDR1 (same binding assay, 5 nM DDR1, 20 nM Kinase Tracer 178, read-out: DDR1 Ki) is 6.83; on DDR2 (same binding assay, 5 nM DDR2, 10 nM Kinase Tracer 178, read-out: DDR2 Ki), 6.23.
For the molecule `Cc1ccc(C(=O)Nc2cc(C(C)(C)C)nn2C)cc1[C@@H]1CCN(c2cncnc2)C1` [Example 17, (S)-N-(3-(tert-butyl)-1-methyl-1H-pyrazol-5-yl)-4-methyl-3-(1-(pyrimidin-5-yl)pyrrolidin-3-yl)benzamide], the pKi on DDR1 (setting [1]) is above 8.30; on DDR2 (setting [2]), 7.60 to 8.30.
On to `Cc1ccc(C(=O)Nc2cncc(C(F)(F)F)c2)cc1[C@@H]1CCN(c2cnccc2C#N)C1` [Example 75, (S)-3-(1-(4-cyanopyridin-3-yl)pyrrolidin-3-yl)-4-methyl-N-(5-(trifluoromethyl)pyridin-3-yl)benzamide], for which the pKi at DDR1 (setting [1]) and on DDR2 (setting [2]) was above 8.30 each time.
As to `Cc1ccc(C(=O)Nc2cc(OC(F)F)ccn2)cc1[C@@H]1CCN(c2cncnc2)C1` [Example 21, (S)-N-(4-(difluoromethoxy)pyridin-2-yl)-4-methyl-3-(1-(pyrimidin-5-yl)pyrrolidin-3-yl)benzamide], the negative-log Ki (pKi) on DDR1 (setting [1]) and at DDR2 (setting [2]) was above 8.30 in each case.
Consider `Cc1ccc(C(=O)Nc2cncc(C(F)(F)F)c2)cc1[C@@H]1CCN(c2ncnc3sccc23)C1` [Example 106, (S)-4-methyl-3-(1-(thieno[2,3-d]pyrimidin-4-yl)pyrrolidin-3-yl)-N-(5-(trifluoromethyl)pyridin-3-yl)benzamide], for which the negative logarithm of the Ki (pKi) on DDR1 (setting [1]) and on DDR2 (setting [2]) was 7.60 to 8.30 each time.
